Source: ChEMBL document CHEMBL5226370, “Selective Inhibition of Organic Cation Transporter 1 by Benzoylpaeoniflorin Attenuates Hepatic Lipid Accumulation through AMPK Activation” (J Nat Prod, 2023)
Activity calls are given as the source filed them. The rule behind the calls is not given here.

Assays:
OCT1 (SLC22A1) = target: T1, OCT1 (SLC22A1) (Homo sapiens, UniProt O15245); test: Inhibition of OCT1(unknown origin)-mediated ASP+ uptake in HEK293 cells expressing OCT1 using ASP+ as substrate at 50 uM incubated for 5 mins by fluorescence based microplate reader analysis relative to control; assay type: cell-based; conditions: HEK293 cells expressing OCT1, probe ASP+
T1 sequence (O15245 whole entry): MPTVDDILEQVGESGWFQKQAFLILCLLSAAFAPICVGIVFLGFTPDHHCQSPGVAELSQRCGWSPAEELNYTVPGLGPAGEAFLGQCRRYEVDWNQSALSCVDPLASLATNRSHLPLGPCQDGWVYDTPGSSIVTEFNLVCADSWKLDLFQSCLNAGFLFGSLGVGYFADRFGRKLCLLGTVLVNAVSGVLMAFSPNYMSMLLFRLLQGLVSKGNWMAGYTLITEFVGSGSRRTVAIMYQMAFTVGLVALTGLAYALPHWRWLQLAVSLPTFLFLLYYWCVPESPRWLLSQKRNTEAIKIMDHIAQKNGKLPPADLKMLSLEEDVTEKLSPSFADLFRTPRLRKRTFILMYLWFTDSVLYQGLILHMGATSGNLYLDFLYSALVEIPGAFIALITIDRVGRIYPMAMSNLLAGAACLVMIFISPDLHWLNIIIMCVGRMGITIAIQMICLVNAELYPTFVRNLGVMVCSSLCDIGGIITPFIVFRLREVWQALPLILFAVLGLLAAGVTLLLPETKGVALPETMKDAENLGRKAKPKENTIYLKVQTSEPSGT

HEK293 [1] = test: Cytotoxicity against HEK293 cells expressing OCT2 assessed as reduction in cell viability at 250 uM incubated for 12 hrs by resazurin dye based assay; assay type: toxicity; conditions: human, hek293, 12 h
[2] = target: T2, Solute carrier family 22 member 1 (Homo sapiens, UniProt O15245); test: Inhibition of OCT1(unknown origin)-mediated ASP+ uptake in HEK293 cells expressing OCT1 using ASP+ as substrate incubated for 5 mins; assay type: cell-based
T2 sequence (O15245 whole entry): T1 sequence (O15245 whole entry)

HEK293 [3] = test: Cytotoxicity against HEK293 cells expressing OCT1 assessed as reduction in cell viability at 250 uM incubated for 12 hrs by resazurin dye based assay; assay type: toxicity; conditions: human, hek293, 12 h
HEK293 [4] = test: Cytotoxicity against HEK293 cells harboring empty vector assessed as reduction in cell viability at 250 uM incubated for 12 hrs by resazurin dye based assay; assay type: toxicity; conditions: human, hek293, 12 h
[5] = target: T3, Solute carrier family 22 member 2 (Homo sapiens, UniProt O15244); test: Inhibition of OCT2(unknown origin)-mediated ASP+ uptake in HEK293 cells expressing OCT2 using ASP+ as substrate incubated for 5 mins; assay type: cell-based
T3 sequence (O15244 whole entry): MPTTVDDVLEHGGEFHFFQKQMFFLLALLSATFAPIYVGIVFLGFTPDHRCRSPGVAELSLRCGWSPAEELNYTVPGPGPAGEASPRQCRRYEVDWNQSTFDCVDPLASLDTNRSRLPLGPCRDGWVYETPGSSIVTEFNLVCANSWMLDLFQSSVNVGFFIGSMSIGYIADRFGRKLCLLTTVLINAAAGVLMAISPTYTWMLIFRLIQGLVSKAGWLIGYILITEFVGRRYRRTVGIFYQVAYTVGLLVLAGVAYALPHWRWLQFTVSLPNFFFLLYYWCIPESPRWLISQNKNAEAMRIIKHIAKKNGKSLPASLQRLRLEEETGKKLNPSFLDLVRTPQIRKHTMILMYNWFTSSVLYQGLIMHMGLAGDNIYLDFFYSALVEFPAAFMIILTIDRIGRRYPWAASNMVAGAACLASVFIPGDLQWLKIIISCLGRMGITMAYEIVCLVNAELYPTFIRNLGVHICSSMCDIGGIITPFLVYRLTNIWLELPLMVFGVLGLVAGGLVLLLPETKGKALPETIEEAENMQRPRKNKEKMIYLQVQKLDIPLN

HEK293 [6] = test: Selectivity index, ratio of IC50 for inhibition of OCT2(unknown origin)-mediated ASP+ uptake in HEK293 cells expressing OCT2 to IC50 for inhibition of OCT1(unknown origin)-mediated ASP+ uptake in HEK293 cells expressing OCT1; assay type: cell-based; conditions: Homo sapiens
HepG2 [7] = test: Inhibition of FFA-induced lipid accumulation in human HepG2 cells expressing OCT1 assessed as decrease in triglyceride level at 10 uM incubated for 24 hrs; assay type: functional, cell-based
[8] = Activation of AMPK signalling pathway in human L02 cells expressing OCT1 assessed as increase in AMPK phosphorylation at 2.5 to 10 uM incubated for 1 to 24 hrs by Western blot analysis; assay type: cell-based; conditions: filed as activator, dose 2.5-10 µM, time 1-24 hrs
[9] = Activation of AMPK signalling pathway in human L02 cells expressing OCT1 assessed as decrease in FASN mRNA expression at 2.5 to 10 uM incubated for 1 to 24 hrs by qRT-PCR analysis; assay type: cell-based; conditions: filed as activator, dose 2.5-10 µM, time 1-24 hrs
[10] = Activation of AMPK signalling pathway in human L02 cells expressing OCT1 assessed as decrease in ACC mRNA expression at 2.5 to 10 uM incubated for 1 to 24 hrs by qRT-PCR analysis; assay type: cell-based; conditions: filed as activator, dose 2.5-10 µM, time 1-24 hrs
HepG2 [11] = test: Inhibition of FFA-induced lipid accumulation in human HepG2 cells expressing OCT1 at 10 uM incubated for 24 hrs by Oil Red O staining based microscopic analysis; assay type: functional, cell-based
L02 [12] = test: Inhibition of FFA-induced lipid accumulation in human L02 cells expressing OCT1 assessed as decrease in triglyceride level at 10 uM incubated for 24 hrs; assay type: functional, cell-based
[13] = Activation of AMPK signalling pathway in human HepG2 cells expressing OCT1 assessed as decrease in FASN mRNA expression at 2.5 to 10 uM incubated for 1 to 24 hrs by qRT-PCR analysis; assay type: cell-based; conditions: filed as activator, dose 2.5-10 µM, time 1-24 hrs
L02 [14] = test: Inhibition of FFA-induced lipid accumulation in human L02 cells expressing OCT1 at 10 uM incubated for 24 hrs by Oil Red O staining based microscopic analysis; assay type: functional, cell-based
[15] = Activation of AMPK signalling pathway in human HepG2 cells expressing OCT1 assessed as increase in AMPK phosphorylation at 2.5 to 10 uM incubated for 1 to 24 hrs by Western blot analysis; assay type: cell-based; conditions: filed as activator, dose 2.5-10 µM, time 1-24 hrs
[16] = Activation of AMPK signalling pathway in human HepG2 cells expressing OCT1 assessed as decrease in ACC mRNA expression at 2.5 to 10 uM incubated for 1 to 24 hrs by qRT-PCR analysis; assay type: cell-based; conditions: filed as activator, dose 2.5-10 µM, time 1-24 hrs

| SMILES | inhibition at 5 min, 50 µM (OCT1 (SLC22A1)) [%] | Activity (HEK293 [1]) | IC50 [2] [µM] | Activity (HEK293 [3]) | Activity (HEK293 [4]) | IC50 [5] [µM] | Ratio IC50 (HEK293 [6]) | inhibition (HepG2 [7]) | Activity [8] | Activity [9] | Activity [10] | inhibition (HepG2 [11]) | inhibition (L02 [12]) | Activity [13] | inhibition (L02 [14]) | Activity [15] | Activity [16] |
| --- | --- | --- | --- | --- | --- | --- | --- | --- | --- | --- | --- | --- | --- | --- | --- | --- | --- |
| CC(C)=CCc1c(O)cc(O)c2c(=O)c(O[C@@H]3O[C@@H](C)[C@H](O)[C@@H](O)[C@H]3O[C@@H]3O[C@H](CO)[C@@H](O)[C@H](O)[C@H]3O)c(-c3ccc(O)cc3)oc12 | > 50 | Non-Toxic | 11.2 | Non-Toxic | Non-Toxic | 56.5 |  |  |  |  |  |  |  |  |  |  |  |
| CNC(=C[N+](=O)[O-])NCCSCc1ccc(CN(C)C)o1 [RANITIDINE] |  |  | 28 |  |  | 1620 | 39.6 |  |  |  |  |  |  |  |  |  |  |
| NC12CC3CC(CC(C3)C1)C2 [AMANTADINE] |  |  | 39.6 |  |  | 45.9 | 1.16 |  |  |  |  |  |  |  |  |  |  |
| O=c1cc(-c2ccc(O)cc2)oc2cc(O)cc(O)c12 [APIGENIN] | > 50 | Non-Toxic | 38.9 | Non-Toxic | Non-Toxic | 30.9 |  |  |  |  |  |  |  |  |  |  |  |
| C/C=C1\C2CC(=O)OC[C@@H](c3ccc(O)c(O)c3)OC[C@H]3O[C@@H](O[C@@H]1OC=C2C(=O)OC)[C@H](O)[C@@H](O)[C@@H]3O | > 50 | Non-Toxic | 47.3 | Non-Toxic | Non-Toxic | 1270 |  |  |  |  |  |  |  |  |  |  |  |
| CC(C)=CCc1cc(-c2cc(=O)c3c(O)cc(O)c(CC=C(C)C)c3o2)cc(O)c1O | > 50 | Non-Toxic | 40.2 | Non-Toxic | Non-Toxic | 33.1 |  |  |  |  |  |  |  |  |  |  |  |
| C[C@@H]1CC[C@@]2(OC1)O[C@H]1C[C@H]3[C@@H]4CC=C5C[C@@H](O)C[C@@H](O[C@@H]6O[C@H](C)[C@H](O)[C@H](O[C@@H]7OC[C@@H](O)[C@H](O)[C@H]7O)[C@H]6O[C@@H]6O[C@@H](C)[C@H](O)[C@@H](O)[C@H]6O)[C@]5(C)[C@H]4CC[C@]3(C)[C@H]1[C@@H]2C | > 50 | Non-Toxic | 41.3 | Non-Toxic | Non-Toxic | 19.1 |  |  |  |  |  |  |  |  |  |  |  |
| C[C@@]12C[C@@]3(O)O[C@@H](O1)[C@]1(COC(=O)c4ccccc4)[C@H]3C[C@@]12O[C@@H]1O[C@H](COC(=O)c2ccccc2)[C@@H](O)[C@H](O)[C@H]1O | > 50 | Non-Toxic | 3.46 | Non-Toxic | Non-Toxic | 4120 | > 1000 | Active | Active | Active | Active | Active | Active | Active | Active | Active | Active |
| COc1cc(O)c2c(c1)oc(=O)c1c3cc(O)c(O)cc3oc21 [WEDELOLACTONE] | > 50 | Non-Toxic | 38.4 | Non-Toxic | Non-Toxic | 17.3 |  |  |  |  |  |  |  |  |  |  |  |
| C[C@H]1O[C@@H](O[C@H]2CC[C@@]3(C)[C@@H](CC[C@]4(C)[C@@H]3C=CC3=C5CC(C)(C)CC[C@]5(CO)[C@@H](O)C[C@]34C)[C@]2(C)CO)[C@H](O)[C@@H](O[C@@H]2O[C@H](CO)[C@@H](O)[C@H](O)[C@H]2O)[C@H]1O | > 50 | Non-Toxic | 35.2 | Non-Toxic | Non-Toxic | 69.5 |  |  |  |  |  |  |  |  |  |  |  |
| O=c1cc(-c2ccc(O)c(O)c2)oc2cc(O)cc(O)c12 [LUTEOLIN] | > 50 | Non-Toxic | 46.1 | Non-Toxic | Non-Toxic | 41 |  |  |  |  |  |  |  |  |  |  |  |
| COc1ccc(-c2oc3cc(OC)cc(OC)c3c(=O)c2OC)cc1 [TETRAMETHYLKAEMPFEROL] | > 50 | Non-Toxic | 47 | Non-Toxic | Non-Toxic | 39.5 |  |  |  |  |  |  |  |  |  |  |  |
